Reference: PubChem BioAssay (NCI)
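Values below derive from 48-hour exposures of cells grown in 96-well plates, with endpoints linearly interpolated between the two concentrations bracketing the appropriate inhibition level. GI50 marks 50% less growth. TGI is the concentration that stops growth completely.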

Legend:
Experiment in all cases: growth of human tumour cells (NCI), 48 h
[1] = test system: 786-0 renal
[2] = test system: A498 renal
[3] = test system: A549 NSCLC
[4] = test system: ACHN renal
[5] = test system: BT-549 breast
[6] = test system: CAKI-1 renal
[7] = test system: CCRF-CEM leukemia
[8] = test system: COLO 205 colon
[9] = test system: DU-145 prostate
[10] = test system: EKVX NSCLC
[11] = test system: HCC-2998 colon
[12] = test system: HCT-116 colon
[13] = test system: HCT-15 colon
[14] = test system: HL-60(TB) leukemia
[15] = test system: HOP-62 NSCLC
[16] = test system: HOP-92 NSCLC
[17] = test system: HS 578T breast
[18] = test system: HT29 colon
[19] = test system: IGROV1 ovarian
[20] = test system: K-562 leukemia
[21] = test system: KM12 colon
[22] = test system: LOX IMVI melanoma
[23] = test system: M14 melanoma
[24] = test system: MALME-3M melanoma
[25] = test system: MCF7 breast
[26] = test system: MDA-MB-231 breast
[27] = test system: MDA-MB-435
[28] = test system: MOLT-4 leukemia
[29] = test system: NCI-H226 lung
[30] = test system: NCI-H23 lung
[31] = test system: NCI-H460 lung
[32] = test system: NCI-H522 lung
[33] = test system: NCI/ADR-RES ovarian
[34] = test system: OVCAR-3 ovarian
[35] = test system: OVCAR-4 ovarian
[36] = test system: OVCAR-5 ovarian
[37] = test system: OVCAR-8 ovarian
[38] = test system: PC-3 prostate
[39] = test system: RPMI-8226 leukemia
[40] = test system: RXF 393 renal
[41] = test system: SF-268 CNS
[42] = test system: SF-295 CNS
[43] = test system: SF-539 CNS
[44] = test system: SK-MEL-2 melanoma
[45] = test system: SK-MEL-28 melanoma
[46] = test system: SK-MEL-5 melanoma
[47] = test system: SK-OV-3 ovarian
[48] = test system: SN12C renal
[49] = test system: SNB-19 CNS
[50] = test system: SNB-75 CNS
[51] = test system: SR leukemia
[52] = test system: SW-620 colon
[53] = test system: T-47D breast
[54] = test system: TK-10 renal
[55] = test system: U251 CNS
[56] = test system: UACC-257 melanoma
[57] = test system: UACC-62 melanoma
[58] = test system: UO-31 renal

`C[C@]12CC[C@H](O)CC1=CC[C@@H]1[C@@H]2CC[C@]2(C)C(c3cccnc3)=CC[C@@H]12` showed a GI50 [1] of 5.18 µM, a TGI [1] of over 100 µM and a GI50 [2] of over 27.8 µM. The TGI [2] was over 100 µM, the GI50 [3] was over 100 µM and the TGI [3] was over 100 µM. The GI50 [4] was 18.7 µM, the TGI [4] was over 100 µM and the GI50 [5] was 21.7 µM. It also gave a TGI [5] of over 100 µM, a GI50 [6] of over 100 µM and a TGI [6] of over 100 µM. For the same molecule, the GI50 [7] was over 96.6 µM, the TGI [7] was over 100 µM and the GI50 [8] was over 100 µM. The TGI [8] was over 100 µM, the GI50 [9] was over 100 µM and the TGI [9] was over 100 µM. It also gave a GI50 [10] of 6.08 µM, a TGI [10] of over 100 µM and a GI50 [11] of over 100 µM. For the same molecule, the TGI [11] was over 100 µM, the GI50 [12] was 19.2 µM and the TGI [12] was over 100 µM. For the same molecule, the GI50 [13] was 25.8 µM, the TGI [13] was over 100 µM and the GI50 [14] was over 100 µM. It also gave a TGI [14] of over 100 µM, a GI50 [15] of 18.4 µM and a TGI [15] of over 100 µM. The GI50 [16] was 8.7 µM, the TGI [16] was over 55.9 µM and the GI50 [17] was 7.13 µM. The TGI [17] was over 100 µM, the GI50 [18] was 56.2 µM and the TGI [18] was over 100 µM. It also gave a GI50 [19] of over 100 µM, a TGI [19] of over 100 µM and a GI50 [20] of 3.99 µM. The TGI [20] was over 100 µM, the GI50 [21] was 76.3 µM and the TGI [21] was over 100 µM. The GI50 [22] was over 100 µM, the TGI [22] was over 100 µM and the GI50 [23] was over 100 µM. For the same molecule, the TGI [23] was over 100 µM, the GI50 [24] was 54.3 µM and the TGI [24] was over 100 µM. The GI50 [25] was over 100 µM, the TGI [25] was over 100 µM and the GI50 [26] was over 27.1 µM. It also gave a TGI [26] of over 100 µM, a GI50 [27] of 12.2 µM and a TGI [27] of over 100 µM. It also gave a GI50 [28] of over 38.5 µM, a TGI [28] of over 100 µM and a GI50 [29] of over 68 µM. It also gave a TGI [29] of over 100 µM, a GI50 [30] of 12.2 µM and a TGI [30] of over 100 µM. For the same molecule, the GI50 [31] was over 100 µM, the TGI [31] was over 100 µM and the GI50 [32] was 10.1 µM. It also gave a TGI [32] of over 100 µM, a GI50 [33] of 38.4 µM and a TGI [33] of over 100 µM. The GI50 [34] was 82.1 µM, the TGI [34] was over 100 µM and the GI50 [35] was 95.2 µM. It also gave a TGI [35] of over 100 µM, a GI50 [36] of over 100 µM and a TGI [36] of over 100 µM. The GI50 [37] was 29.5 µM, the TGI [37] was over 100 µM and the GI50 [38] was over 100 µM. It also gave a TGI [38] of over 100 µM, a GI50 [39] of 5.1 µM and a TGI [39] of over 100 µM. The GI50 [40] was 3.32 µM, the TGI [40] was 19 µM and the GI50 [41] was 15.7 µM. The TGI [41] was over 100 µM, the GI50 [42] was 6.07 µM and the TGI [42] was over 100 µM. The GI50 [43] was 8.31 µM, the TGI [43] was over 100 µM and the GI50 [44] was 34.5 µM. The TGI [44] was over 100 µM, the GI50 [45] was 61.3 µM and the TGI [45] was over 100 µM. The GI50 [46] was 46.1 µM, the TGI [46] was over 100 µM and the GI50 [47] was over 33.8 µM. The TGI [47] was over 100 µM, the GI50 [48] was over 100 µM and the TGI [48] was over 100 µM. The GI50 [49] was 26.8 µM, the TGI [49] was over 100 µM and the GI50 [50] was 7.69 µM. For the same molecule, the TGI [50] was over 48.7 µM, the GI50 [51] was 9.44 µM and the TGI [51] was over 100 µM. It also gave a GI50 [52] of over 100 µM, a TGI [52] of over 100 µM and a GI50 [53] of over 100 µM. For the same molecule, the TGI [53] was over 100 µM, the GI50 [54] was over 100 µM and the TGI [54] was over 100 µM. It also gave a GI50 [55] of 12.3 µM, a TGI [55] of over 100 µM and a GI50 [56] of over 100 µM. The TGI [56] was over 100 µM, the GI50 [57] was 37.4 µM and the TGI [57] was over 100 µM. It also gave a GI50 [58] of over 100 µM and a TGI [58] of over 100 µM.
